Assay results taken from US20220226337A1 (Gilead Sciences, Inc., priority 2018, published 2022).

biological target: T1, α4β7 integrin interaction with MadCAM-1 (RPMI8866 cells) (Homo sapiens, UniProt P13612+P26010); test: α4β7 Integrin Cell Capture Assay; assay type: cell-based; settings: capture of α4β7 integrin expressing RPMI8866 cells on recombinant MadCAM-1 extracellular domain-coated plate; 0.5 mM MnCl2
T1 construct: α4β7 integrin expressing cells; endogenous in cells; host or cells: RPMI8866 cells
T1 sequence (P13612 34-1032): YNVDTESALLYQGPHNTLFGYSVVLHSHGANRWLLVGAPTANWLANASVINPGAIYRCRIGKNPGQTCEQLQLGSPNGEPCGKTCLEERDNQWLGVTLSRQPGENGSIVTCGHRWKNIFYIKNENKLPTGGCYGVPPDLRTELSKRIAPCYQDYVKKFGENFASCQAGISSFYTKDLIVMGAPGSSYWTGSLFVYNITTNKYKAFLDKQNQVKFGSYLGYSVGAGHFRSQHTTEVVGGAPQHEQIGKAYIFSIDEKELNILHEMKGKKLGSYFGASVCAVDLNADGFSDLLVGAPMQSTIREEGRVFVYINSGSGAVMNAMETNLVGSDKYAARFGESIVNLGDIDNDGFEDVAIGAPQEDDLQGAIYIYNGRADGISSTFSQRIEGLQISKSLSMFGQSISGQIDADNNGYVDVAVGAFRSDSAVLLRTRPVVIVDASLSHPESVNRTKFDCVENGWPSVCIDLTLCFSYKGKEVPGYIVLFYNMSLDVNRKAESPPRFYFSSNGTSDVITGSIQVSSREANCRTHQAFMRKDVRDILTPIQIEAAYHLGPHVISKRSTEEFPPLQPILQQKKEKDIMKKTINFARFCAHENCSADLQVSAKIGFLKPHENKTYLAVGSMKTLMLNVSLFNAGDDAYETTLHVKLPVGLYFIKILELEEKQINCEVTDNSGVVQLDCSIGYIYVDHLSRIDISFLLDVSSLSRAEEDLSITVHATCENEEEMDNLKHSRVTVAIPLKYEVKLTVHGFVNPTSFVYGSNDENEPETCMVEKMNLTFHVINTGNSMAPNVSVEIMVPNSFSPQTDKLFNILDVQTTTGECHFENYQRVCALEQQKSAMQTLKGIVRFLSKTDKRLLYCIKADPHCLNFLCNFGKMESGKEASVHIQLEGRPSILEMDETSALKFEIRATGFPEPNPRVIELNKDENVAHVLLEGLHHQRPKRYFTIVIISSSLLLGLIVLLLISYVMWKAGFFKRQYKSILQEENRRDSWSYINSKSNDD
T1 sequence (P26010 20-798): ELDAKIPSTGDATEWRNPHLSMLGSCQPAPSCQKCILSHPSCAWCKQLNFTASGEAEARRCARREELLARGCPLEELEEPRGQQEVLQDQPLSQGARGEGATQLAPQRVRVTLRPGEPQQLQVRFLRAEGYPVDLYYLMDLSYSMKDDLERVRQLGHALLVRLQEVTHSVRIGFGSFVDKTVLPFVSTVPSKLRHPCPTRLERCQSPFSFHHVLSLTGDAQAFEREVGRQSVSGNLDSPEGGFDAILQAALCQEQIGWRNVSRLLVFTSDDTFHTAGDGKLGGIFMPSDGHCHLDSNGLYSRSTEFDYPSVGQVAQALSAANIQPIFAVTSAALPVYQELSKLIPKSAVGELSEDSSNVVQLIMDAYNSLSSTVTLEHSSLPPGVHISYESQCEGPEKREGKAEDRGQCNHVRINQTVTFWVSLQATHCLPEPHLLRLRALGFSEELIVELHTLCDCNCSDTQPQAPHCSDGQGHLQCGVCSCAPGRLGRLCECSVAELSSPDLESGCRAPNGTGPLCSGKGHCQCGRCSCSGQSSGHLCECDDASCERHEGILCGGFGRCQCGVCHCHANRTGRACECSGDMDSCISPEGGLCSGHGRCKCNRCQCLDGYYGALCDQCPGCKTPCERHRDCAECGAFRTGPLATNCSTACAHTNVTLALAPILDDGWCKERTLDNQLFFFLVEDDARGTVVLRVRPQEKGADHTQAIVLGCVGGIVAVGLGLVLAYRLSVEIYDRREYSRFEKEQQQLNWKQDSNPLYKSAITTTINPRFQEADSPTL
In short: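 RPMI8866 cells (0.5×10^6 cells/mL in DMEM + 0.5% FBS + 0.5 mM MnCl2) preincubated with compound 1 h at 37 °C, then allowed to adhere 30 min at 37 °C to plates coated with MAdCAM-1 extracellular domain (1.0 μg/mL). Bound cells fixed with 2% glutaraldehyde, Hoechst-stained, imaged and counted; EC50 from cell count versus concentration.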

Row | SMILES | EC50
1 | O=C(N[C@@H](Cc1ccc(-c2c(Cl)cc(F)cc2Cl)c2c1CCCO2)C(=O)O)c1c(F)cc(N2CCOC[C@@H]2C(F)(F)F)cc1F [Example 83, (S)-3-(8-(2,6-dichloro-4-fluorophenyl)chroman-5-yl)-2-(2,6-difluoro-4-((R)-3-(trifluoromethyl)morpholino)benzamido)propanoic acid] | 35.5 nM
2 | Cc1c(-c2ccc(C[C@H](NC(=O)c3c(F)cc(N4CCOC[C@@H]4C(F)(F)F)cc3F)C(=O)O)c3c2OCCO3)c(=O)n(C)c(=O)n1C (single isomer, unassigned) [Example 9] | 0.431 nM
3 | Cn1c(=O)c(-c2ccc(C[C@H](NC(=O)c3c(F)cc(N4CCOC[C@@H]4C(F)(F)F)cc3F)C(=O)O)c3c2COC3)cc2ccccc21 [Example 26, (S)-2-(2,6-difluoro-4-((R)-3-(trifluoromethyl)morpholino)benzamido)-3-(7-(1-methyl-2-oxo-1,2-dihydroquinolin-3-yl)-1,3-dihydroisobenzofuran-4-yl)propanoic acid] | 1.04 nM
4 | CC[C@@H](Nc1cc(F)c(C(=O)N[C@@H](Cc2ccc(-c3c(C(F)(F)F)cc(C)n(C)c3=O)c3c2CCCO3)C(=O)O)c(F)c1)C(F)(F)F (single isomer, unassigned) [Example 45] | 0.964 nM
5 | CN1CCCc2c(C[C@H](NC(=O)c3c(F)cccc3F)C(=O)O)ccc(-c3c(Cl)cc(F)cc3Cl)c21 [Example 102, (S)-3-(8-(2,6-dichloro-4-fluorophenyl)-1-methyl-1,2,3,4-tetrahydroquinolin-5-yl)-2-(2,6-difluorobenzamido)propanoic acid] | 267 nM
6 | CC[C@@H](Nc1cc(F)c(C(=O)N[C@@H](Cc2ccc(-c3c(C)c4cc(F)ccc4n(C)c3=O)c3c2CCCO3)C(=O)O)c(F)c1)C(F)(F)F [Example 33, (S)-2-(2,6-difluoro-4-(((R)-1,1,1-trifluorobutan-2-yl)amino)benzamido)-3-(8-(6-fluoro-1,4-dimethyl-2-oxo-1,2-dihydroquinolin-3-yl)chroman-5-yl)propanoic acid] | 2.72 nM
7 | CC[C@@H](Nc1cc(F)c(C(=O)N[C@@H](Cc2ccc(-c3c(C)cc(C)n(C)c3=O)c3c2CCCO3)C(=O)O)c(F)c1)C(F)(F)F [Example 52, (S)-2-(2,6-difluoro-4-(((R)-1,1,1-trifluorobutan-2-yl)amino)benzamido)-3-(8-(1,4,6-trimethyl-2-oxo-1,2-dihydropyridin-3-yl)chroman-5-yl)propanoic acid] | 1.63 nM
8 | CC[C@@H](Nc1cc(F)c(C(=O)N[C@@H](Cc2ccc(-c3c(C)n(C)c(=O)n(C)c3=O)c3c2CCCO3)C(=O)O)c(F)c1)C(F)(F)F (single isomer, unassigned) [Example 56] | 0.961 nM
9 | Cc1cc(C(F)(F)F)c(-c2ccc(C[C@H](NC(=O)c3c(F)cc(N[C@H](C)C(F)(F)F)cc3F)C(=O)O)c3c2COC3)c(=O)n1C [Example 20, (S)-2-(2,6-difluoro-4-(((R)-1,1,1-trifluoropropan-2-yl)amino)benzamido)-3-(7-(1,6-dimethyl-2-oxo-4-(trifluoromethyl)-1,2-dihydropyridin-3-yl)-1,3-dihydroisobenzofuran-4-yl)propanoic acid] | 0.242 nM
10 | Cc1cc(N2CCOC[C@@H]2C(F)(F)F)cc(F)c1C(=O)N[C@@H](Cc1ccc(-c2c(C)nc(C)n(C)c2=O)c2c1CCCO2)C(=O)O [Example 129] | 0.189 nM
11 | Cc1cc(N2CCOC[C@@H]2C(F)(F)F)cc(F)c1C(=O)N[C@@H](Cc1ccc(-c2c(C)ncn(C)c2=O)c2c1CCCO2)C(=O)O [Example 134] | 0.374 nM
12 | O=C(N[C@@H](Cc1ccc(-c2ncc3ccccc3c2Br)c2c1CCCO2)C(=O)O)c1c(F)cccc1F [Example 65, (S)-3-(8-(4-bromoisoquinolin-3-yl)chroman-5-yl)-2-(2,6-difluorobenzamido)propanoic acid] | 19.6 nM
13 | Cc1c(-c2ccc(C[C@H](NC(=O)c3c(F)cccc3F)C(=O)O)c3c2COC3)c(=O)n(C)c(=O)n1C [Example 18, (S)-2-(2,6-difluorobenzamido)-3-(7-(1,3,6-trimethyl-2,4-dioxo-1,2,3,4-tetrahydropyrimidin-5-yl)-1,3-dihydroisobenzofuran-4-yl)propanoic acid] | 5.22 nM
14 | Cc1cc(N2CCOC[C@@H]2C(F)(F)F)cc(F)c1C(=O)N[C@@H](Cc1ccc(-c2cc3cnccc3n(C)c2=O)c2c1COC2)C(=O)O [Example 189] | 0.242 nM
15 | O=C(N[C@@H](Cc1ccc(-c2c(Cl)cc(F)cc2Cl)c2c1[C@@H]1C[C@@H]1CO2)C(=O)O)c1c(F)cccc1F (single isomer, unassigned) [Example 79] | 33.1 nM
16 | Cc1cc(N2CCOC[C@@H]2C(F)(F)F)cc(F)c1C(=O)N[C@@H](Cc1ccc(-c2nc(C)c(C)n(C)c2=O)c2c1CCCO2)C(=O)O [Example 165] | 0.25 nM
17 | N#Cc1cc(Cl)c(-c2ccc(C[C@H](NC(=O)c3c(F)cc(N[C@H](c4ccccc4)C(F)(F)F)cc3F)C(=O)O)c3c2OCCC3)c(Cl)c1 [Example 87, (S)-3-(8-(2,6-dichloro-4-cyanophenyl)chroman-5-yl)-2-(2,6-difluoro-4-(((R)-2,2,2-trifluoro-1-phenylethyl)amino)benzamido)propanoic acid] | 12.8 nM
18 | CC[C@@H](Nc1cc(F)c(C(=O)N[C@@H](Cc2ccc(-c3c(C(F)(F)F)cc(C)n(C)c3=O)c3c2CCCO3)C(=O)O)c(F)c1)C(F)(F)F (single isomer, unassigned) [Example 44] | 0.29 nM
19 | Cc1nc(-c2ccc(C[C@H](NC(=O)c3c(F)cc(N4C[C@H]5C[C@H]5[C@@H]4C(F)(F)F)cc3F)C(=O)O)c3c2OCCC3)c(=O)n(C)c1C [Example 138] | 0.964 nM
20 | Cc1nc(-c2ccc(C[C@H](NC(=O)c3c(F)cc(N4CCOC[C@@H]4C(F)(F)F)c(F)c3F)C(=O)O)c3c2OCCC3)c(=O)n(C)c1C [Example 121] | 0.758 nM
21 | Cc1nc(C)n(C)c(=O)c1-c1ccc(C[C@H](NC(=O)c2c(F)cc(N3CCOC[C@@H]3C(F)(F)F)cc2F)C(=O)O)c2c1OCCC2 (atropisomer, axis not shown) [Example 118] | 0.142 nM
22 | CC[C@@H](Nc1cc(F)c(C(=O)N[C@@H](Cc2ccc(-c3nc(C)c(C)n(C)c3=O)c3c2CCCO3)C(=O)O)c(F)c1)C(F)(F)F [Example 49, (S)-2-(2,6-difluoro-4-(((R)-1,1,1-trifluorobutan-2-yl)amino)benzamido)-3-(8-(4,5,6-trimethyl-3-oxo-3,4-dihydropyrazin-2-yl)chroman-5-yl)propanoic acid] | 0.83 nM
23 | Cc1nc(-c2ccc(C[C@H](NC(=O)c3c(F)cccc3F)C(=O)O)c3c2OCCO3)c(C(F)(F)F)c2ccccc12 [Example 2, (S)-2-(2,6-difluorobenzamido)-3-(8-(1-methyl-4-(trifluoromethyl)isoquinolin-3-yl)-2,3-dihydrobenzo[b][1,4]dioxin-5-yl)propanoic acid] | 3.76 nM
24 | O=C(N[C@@H](Cc1ccc(-c2c(Cl)cc(F)cc2Cl)c2c1C1CC1CO2)C(=O)O)c1c(Cl)cccc1Cl (stereo partly drawn) [Example 80, (2S)-3-(4-(2,6-dichloro-4-fluorophenyl)-1,1a,2,7b-tetrahydrocyclopropa[c]chromen-7-yl)-2-(2,6-dichlorobenzamido)propanoic acid] | 67.7 nM
